Test results from patent US11913944B2, “Photoaffinity probes” (Promega Corporation, priority 2019, dated 2024).

How the values were obtained:
[1] = Influence of UV irradiation on fluorescence intensity of SAHA-fluorophore conjugates; type: physicochemical; settings: UV irradiated 0-30 minutes; HEK293T cells expressing HDAC6-NANOLUC fusion
Description: During development of the BRET approach described herein for estimating crosslinking efficiency, experiments were conducted to determine the influence of UV irradiation on the bioluminescent intensity of the energy donor NANOLUC, and the fluorescence intensity of three fluorophores that can be used as energy acceptors (FIGS. 12-15). The model system for these experiments (FIG. 13) was the interaction between HDAC6 fused to NANOLUC and SAHA (vorinostat), which binds to HDAC6 and was conjugated to one of three fluorophores NCT, TAMRA, and BODIPY576 (FIG. 12). In these experiments HEK293T cells transiently expressing HAD6-NANOLUC fusion were treated for 2 hours with serial dilution of SAHA-fluorophore conjugate, then UV irradiated for 0-30 minutes and subsequently treated with NANOGLO detection reagent. […] Thus, NANOLUC and NCT were chosen as a BRET donor and acceptor pair for the assays estimating photocrosslinking efficiency.

STAT5 reporter = STAT5 reporter expression in K-562 cells; type: cell-based; settings: Homo sapiens, K562; K-562 cells transiently expressing a STAT5 reporter, 24 hours; read-out: IC50, inhibited expression of a STAT5 reporter
Description: Dasatinib is a broad kinase inhibitor targeting the BCR-ABL oncogenic pathway, thereby reducing the downstream activation of STAT5. K-562 cells transiently expressing a STAT5 reporter (2×10^5 cells/mL) were treated with serial dilution of dasatinib or a derivative having cleavable chloroalkane tag (+/−a PRG) for 24 hours and then tested for expression of the STAT5 reporter.

| Fluorescence intensity under UV irradiation [1] | IC50 (STAT5 reporter) | Structure (SMILES) |
| --- | --- | --- |
| decreased the fluorescence intensity | – | O=C(CCCCCCC(=O)Nc1ccc(CNC(=O)CCc2ccc3n2[B-](F)(F)[N+]2=C(c4ccc[nH]4)C=CC2=C3)cc1)NO [SAHA-BODIPY576] |
| not significantly affected | – | O=C(CCCCCCC(=O)Nc1ccc(CNC(=O)c2ccc(C(=O)O)c(C3=c4cc5c6c(c4Oc4c3cc3c7c4CCCN7CCCC3)CCC[N+]=6CCCC5)c2)cc1)NO [SAHA-NCT] |
| decreased the fluorescence intensity | – | CN(C)c1ccc2c(-c3cc(C(=O)NCc4ccc(NC(=O)CCCCCCC(=O)NO)cc4)ccc3C(=O)O)c3ccc(=[N+](C)C)cc-3oc2c1 [SAHA-TMR] |
| – | 400 pM | Cc1nc(Nc2ncc(C(=O)Nc3c(C)cccc3Cl)s2)cc(N2CCN(CCO)CC2)n1 [dasatinib] |
